Source: ChEMBL document CHEMBL4052699, “Synthesis, in vitro and in vivo giardicidal activity of nitrothiazole-NSAID chimeras displaying broad antiprotozoal spectrum” (Bioorg Med Chem Lett, 2017)
Where “and” joins values, the source holds several entries; their conditions need not be identical. Equal values may be shown once.

Key:
Giardia intestinalis [1] = assay: Antiprotozoal activity against Giardia intestinalis IMSS:0696:1 (genotype A) trophozoites incubated for 48 hrs; assay type: functional; conditions: Giardia duodenalis
Trichomonas vaginalis [2] = assay: Antiprotozoal activity against Trichomonas vaginalis GT3 trophozoites incubated for 48 hrs; assay type: functional; conditions: GT3, 48 h
Leishmania amazonensis [3] = assay: Antiprotozoal activity against Leishmania amazonensis IFLA/BR/67/PH-8 incubated for 72 hrs by Neubauer chamber based cell counting method; assay type: functional; conditions: IFLA/BR/67/PH-8, 72 h
Leishmania mexicana = assay: Antiprotozoal activity against Leishmania mexicana MHOM/MX/ISETGS incubated for 72 hrs by Neubauer chamber based cell counting method; assay type: functional
Trypanosoma cruzi [4] = assay: Potency index, ratio of IC50 for benznidazole to IC50 for test compound for antiprotozoal activity against Trypanosoma cruzi MHOM/MX/1994/Ninoa incubated for 72 hrs by Neubauer chamber based cell counting method; assay type: functional
Trypanosoma cruzi [5] = assay: Antiprotozoal activity against Trypanosoma cruzi MHOM/MX/1994/Ninoa incubated for 72 hrs by Neubauer chamber based cell counting method; assay type: functional
[6] = Cytotoxicity against African green monkey Vero cells incubated for 24 to 48 hrs by SRB assay; assay type: cell-based; conditions: chlorocebus sabaeus
Trichomonas vaginalis [7] = assay: Potency index, ratio of IC50 for nitazoxanide to IC50 for test compound for antiprotozoal activity against Trichomonas vaginalis GT3 trophozoites incubated for 48 hrs; assay type: functional
Trichomonas vaginalis [8] = assay: Potency index, ratio of IC50 for metronidazole to IC50 for test compound for antiprotozoal activity against Trichomonas vaginalis GT3 trophozoites incubated for 48 hrs; assay type: functional
[9] = Selectivity index, ratio of CC50 for cytotoxicity against African green monkey Vero cells to IC50 for Giardia intestinalis Giardia intestinalis IMSS:0696:1 (genotype A)
[10] = Selectivity index, ratio of CC50 for cytotoxicity against African green monkey Vero cells to IC50 for Trichomonas vaginalis GT3
[11] = Selectivity index, ratio of CC50 for cytotoxicity against African green monkey Vero cells to IC50 for Leishmania mexicana MHOM/MX/ISETGS; assay type: toxicity, cell-based; conditions: read-out: Ratio CC50/IC50
Giardia intestinalis [12] = assay: Antigiardial activity against Giardia intestinalis WB trophozoites infected in CD1 mouse dosed intragastrically 6 days after infection and measured 48 hrs post dose; assay type: functional; conditions: Giardia duodenalis, po
Giardia intestinalis [13] = assay: Potency index, ratio of ED50 for metronidazole to ED50 for test compound for antigiardial activity against Giardia intestinalis WB trophozoites infected in CD1 mouse dosed intragastrically 6 days after infection and measured 48 hrs post dose; assay type: functional, Giardia duodenalis
Giardia intestinalis [14] = assay: Potency index, ratio of ED50 for nitazoxanide to ED50 for test compound for antigiardial activity against Giardia intestinalis WB trophozoites infected in CD1 mouse dosed intragastrically 6 days after infection and measured 48 hrs post dose; assay type: functional, Giardia duodenalis
Giardia intestinalis [15] = assay: Potency index, ratio of IC50 for metronidazole to IC50 for test compound for antiprotozoal activity against Giardia intestinalis IMSS:0696:1 (genotype A) trophozoites incubated for 48 hrs; assay type: functional, Giardia duodenalis
Giardia intestinalis [16] = assay: Potency index, ratio of IC50 for nitazoxanide to IC50 for test compound for antiprotozoal activity against Giardia intestinalis IMSS:0696:1 (genotype A) trophozoites incubated for 48 hrs; assay type: functional, Giardia duodenalis
Leishmania amazonensis [17] = assay: Potency index, ratio of IC50 for pentamidine to IC50 for test compound for antiprotozoal activity against Leishmania amazonensis IFLA/BR/67/PH-8 incubated for 72 hrs by Neubauer chamber based cell counting method; assay type: functional
Leishmania amazonensis [18] = assay: Potency index, ratio of IC50 for nitazoxanide to IC50 for test compound for antiprotozoal activity against Leishmania amazonensis IFLA/BR/67/PH-8 incubated for 72 hrs by Neubauer chamber based cell counting method; assay type: functional

| IC50 (Giardia intestinalis [1]) [µM] | IC50 (Trichomonas vaginalis [2]) [µM] | IC50 (Leishmania amazonensis [3]) [µM] | IC50 (Leishmania mexicana) [µM] | IC50 (Trypanosoma cruzi [5]) [µM] | SMILES | Ratio IC50 (Trypanosoma cruzi [4]) | CC50 [6] [µM] | Ratio IC50 (Trichomonas vaginalis [7]) | Ratio IC50 (Trichomonas vaginalis [8]) | Ratio CC50/IC50 [9] | Ratio CC50/IC50 [10] | selectivity ratio [11] | ED50 (Giardia intestinalis [12]) | Ratio ED50 (Giardia intestinalis [13]) | Ratio ED50 (Giardia intestinalis [14]) | Ratio IC50 (Giardia intestinalis [15]) | Ratio IC50 (Giardia intestinalis [16]) | Ratio IC50 (Leishmania amazonensis [17]) | Ratio IC50 (Leishmania amazonensis [18]) |
| --- | --- | --- | --- | --- | --- | --- | --- | --- | --- | --- | --- | --- | --- | --- | --- | --- | --- | --- | --- |
| 0.172 | 0.032 | 3.43 | 16.6 | 12.2 | CC(C)(Oc1ccc(Cl)cc1)C(=O)Nc1ncc([N+](=O)[O-])s1 | 2 | 22 | 2 | 10 | 127 | 686 | 6 | 0.00384 mg/kg and 0.0113 µmol/kg | 50 - 300 | 50 - 300 | – | – | – | – |
| 0.145 | 0.134 | 0.88 | 6.77 | > 50 | COc1ccc2c(c1)c(CC(=O)Nc1ncc([N+](=O)[O-])s1)c(C)n2C(=O)c1ccc(Cl)cc1 | – | 13 | – | – | 89 | 96 | 15 | 0.00171 mg/kg and 0.00353 µmol/kg | 321 | 1015 | 38 | 8 | 16 | 8 |
| 0.221 | 0.162 | 3.64 | 25.5 | 12.9 | COc1ccc2cc([C@H](C)C(=O)Nc3ncc([N+](=O)[O-])s3)ccc2c1 | 2 | 180 | – | – | 815 | 1112 | 49 | 0.00766 mg/kg and 0.0215 µmol/kg | 50 - 300 | 50 - 300 | – | – | – | – |
| 0.147 | 0.218 | 1.89 | 6.12 | 15.7 | O=C(Cc1ccccc1Nc1c(Cl)cccc1Cl)Nc1ncc([N+](=O)[O-])s1 | 2 | – | – | – | – | – | – | – | – | – | 38 | 8 | – | – |
| 0.227 | 0.045 | 6.42 | 17.1 | 15 | CC(C)Cc1ccc(C(C)C(=O)Nc2ncc([N+](=O)[O-])s2)cc1 (racemic) | 2 | 201 | 1.7 | 7 | 887 | 4475 | 31 | 0.00399 mg/kg and 0.012 µmol/kg | 50 - 300 | 50 - 300 | – | – | – | – |
| – | – | > 50 | > 50 | – | O=C(Cn1ccnc1[N+](=O)[O-])NCc1ccccc1 [BENZNIDAZOLE] | – | – | – | – | – | – | – | – | – | – | – | – | – | – |
| – | – | > 50 | > 50 | > 50 | Cc1ncc([N+](=O)[O-])n1CCO [METRONIDAZOLE] | – | – | – | – | 72 | 1134 | < 7 | – | – | – | – | – | – | – |
| 20 | 20 | 1.35 | 2.03 | 25.2 | CCCCCCCCCCCCCCCCOP(=O)([O-])OCC[N+](C)(C)C [MILTEFOSINE] | – | 0.12 | – | – | – | – | – | – | – | – | – | – | – | – |
| – | – | – | 3.1 | 7.45 | CC1CS(=O)(=O)CCN1/N=C/c1ccc([N+](=O)[O-])o1 (stereo unspecified) [NIFURTIMOX] | – | – | – | – | – | – | – | – | – | – | – | – | – | – |
| – | – | – | – | – | CC(=O)Oc1ccccc1C(=O)Nc1ncc([N+](=O)[O-])s1 [NITAZOXANIDE] | 2 | – | – | – | – | – | 115 | 1.1 mg/kg and 3.58 µmol/kg | – | – | – | – | – | – |
| – | – | – | – | > 50 | N=C(N)c1ccc(OCCCCCOc2ccc(C(=N)N)cc2)cc1 [PENTAMIDINE] | – | – | – | – | 11 | 12.3 | 3.2 | – | – | – | – | – | – | – |

| SMILES | IC50 (Giardia intestinalis [1]) [µM] | IC50 (Trichomonas vaginalis [2]) [µM] | IC50 (Leishmania amazonensis [3]) [µM] | IC50 (Leishmania mexicana) [µM] | IC50 (Trypanosoma cruzi [5]) [µM] | Ratio IC50 (Trypanosoma cruzi [4]) | CC50 [6] [µM] | Ratio IC50 (Trichomonas vaginalis [7]) | Ratio IC50 (Trichomonas vaginalis [8]) | Ratio CC50/IC50 [9] | Ratio CC50/IC50 [10] | selectivity ratio [11] | ED50 (Giardia intestinalis [12]) | Ratio ED50 (Giardia intestinalis [13]) | Ratio ED50 (Giardia intestinalis [14]) | Ratio IC50 (Giardia intestinalis [15]) | Ratio IC50 (Giardia intestinalis [16]) | Ratio IC50 (Leishmania amazonensis [17]) | Ratio IC50 (Leishmania amazonensis [18]) |
| --- | --- | --- | --- | --- | --- | --- | --- | --- | --- | --- | --- | --- | --- | --- | --- | --- | --- | --- | --- |
| O=[N+]([O-])c1cncs1 | 29.6 | 52.9 | > 50 | > 50 | > 50 | – | 441 | – | – | – | – | – | – | – | – | – | – | – | – |
